Results: ChEMBL document CHEMBL1201862, “PubChem BioAssay data set” (2004)
Calls of active or inactive are those of the source.

Legend:
Cytochrome P450 1A2 = biological target: T1, Cytochrome P450 1A2 (Homo sapiens, UniProt P05177);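 note: PubChem cytochrome P450 panel assay, CYP1A2 panel member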
T1 sequence (P05177 whole entry): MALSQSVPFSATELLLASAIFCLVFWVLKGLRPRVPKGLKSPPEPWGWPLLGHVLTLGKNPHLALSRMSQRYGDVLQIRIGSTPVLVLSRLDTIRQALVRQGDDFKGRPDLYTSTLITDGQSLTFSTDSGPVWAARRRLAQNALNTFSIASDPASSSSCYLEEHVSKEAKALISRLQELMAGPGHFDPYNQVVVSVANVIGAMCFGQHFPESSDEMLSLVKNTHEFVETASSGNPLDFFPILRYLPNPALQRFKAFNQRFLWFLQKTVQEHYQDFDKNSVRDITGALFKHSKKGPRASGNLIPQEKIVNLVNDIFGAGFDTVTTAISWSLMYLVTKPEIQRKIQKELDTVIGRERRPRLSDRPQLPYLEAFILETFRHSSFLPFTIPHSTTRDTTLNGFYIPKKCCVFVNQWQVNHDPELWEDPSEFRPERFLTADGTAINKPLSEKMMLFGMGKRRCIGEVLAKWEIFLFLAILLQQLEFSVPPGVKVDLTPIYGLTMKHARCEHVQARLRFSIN

[1] = Luminescence Cell-Based Dose Retest to Confirm Inhibitors of Cancer Stem Cells. [Related pubchem assays (depositor defined):AID2717, AID2721]; type: functional; settings: Homo sapiens
Cytochrome P450 3A4 = Cytochrome P450 3A4 (Homo sapiens, UniProt P08684);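 note: CYP3A4 tested as one member of a cytochrome P450 panel screen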
Cytochrome P450 3A4, sequence (P08684 whole entry): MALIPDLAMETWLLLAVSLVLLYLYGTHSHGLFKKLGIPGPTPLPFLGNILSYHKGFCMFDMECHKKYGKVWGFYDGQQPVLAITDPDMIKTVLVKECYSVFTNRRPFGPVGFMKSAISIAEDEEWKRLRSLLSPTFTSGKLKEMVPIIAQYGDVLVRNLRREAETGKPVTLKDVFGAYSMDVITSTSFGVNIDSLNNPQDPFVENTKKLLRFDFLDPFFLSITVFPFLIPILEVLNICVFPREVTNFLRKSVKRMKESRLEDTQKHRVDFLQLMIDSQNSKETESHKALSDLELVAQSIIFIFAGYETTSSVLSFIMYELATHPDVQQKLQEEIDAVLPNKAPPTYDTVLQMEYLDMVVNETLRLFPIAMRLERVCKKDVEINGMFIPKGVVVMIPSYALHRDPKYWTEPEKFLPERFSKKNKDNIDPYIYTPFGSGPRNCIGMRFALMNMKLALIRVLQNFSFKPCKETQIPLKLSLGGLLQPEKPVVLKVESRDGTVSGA

Cytochrome P450 2C19 = Cytochrome P450 2C19 (Homo sapiens, UniProt P33261); assay: Cytochrome panel assay with activity outcomes. Panel member name: p450-cyp2c19 Compounds with AC50 equal or less than 10 uM are considered active; type: functional
Cytochrome P450 2C19, sequence (P33261 whole entry): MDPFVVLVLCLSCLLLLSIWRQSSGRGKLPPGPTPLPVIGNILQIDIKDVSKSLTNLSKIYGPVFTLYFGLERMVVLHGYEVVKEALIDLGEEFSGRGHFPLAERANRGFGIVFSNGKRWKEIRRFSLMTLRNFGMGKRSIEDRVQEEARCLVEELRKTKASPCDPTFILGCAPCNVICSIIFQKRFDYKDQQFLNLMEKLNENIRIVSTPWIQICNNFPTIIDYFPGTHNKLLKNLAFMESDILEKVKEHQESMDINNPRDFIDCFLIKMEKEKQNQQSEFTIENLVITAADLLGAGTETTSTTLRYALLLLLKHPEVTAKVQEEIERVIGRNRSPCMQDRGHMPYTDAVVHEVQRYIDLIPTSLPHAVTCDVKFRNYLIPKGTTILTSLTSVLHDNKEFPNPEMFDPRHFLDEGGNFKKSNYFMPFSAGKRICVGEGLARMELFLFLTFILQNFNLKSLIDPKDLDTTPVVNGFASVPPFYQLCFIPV

Cytochrome P450 2D6 = Cytochrome P450 2D6 (Homo sapiens, UniProt P10635);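 note: CYP2D6 member of a cytochrome P450 panel assay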
Cytochrome P450 2D6, sequence (P10635 whole entry): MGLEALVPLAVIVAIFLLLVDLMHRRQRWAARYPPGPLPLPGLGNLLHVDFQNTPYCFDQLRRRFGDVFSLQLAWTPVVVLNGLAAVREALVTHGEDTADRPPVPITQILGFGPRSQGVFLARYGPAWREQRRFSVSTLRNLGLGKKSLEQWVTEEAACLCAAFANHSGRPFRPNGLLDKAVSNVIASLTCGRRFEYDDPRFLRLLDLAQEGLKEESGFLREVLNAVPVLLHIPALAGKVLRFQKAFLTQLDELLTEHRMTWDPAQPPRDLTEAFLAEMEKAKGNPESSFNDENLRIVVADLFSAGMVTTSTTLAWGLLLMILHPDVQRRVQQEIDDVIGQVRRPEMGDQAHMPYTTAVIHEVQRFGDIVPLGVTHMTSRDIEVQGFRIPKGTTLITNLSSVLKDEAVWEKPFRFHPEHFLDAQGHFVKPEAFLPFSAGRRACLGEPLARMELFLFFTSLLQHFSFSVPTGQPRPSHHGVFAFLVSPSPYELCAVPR

Cytochrome P450 2C9 = Cytochrome P450 2C9 (Homo sapiens, UniProt P11712)
Cytochrome P450 2C9, sequence (P11712 whole entry): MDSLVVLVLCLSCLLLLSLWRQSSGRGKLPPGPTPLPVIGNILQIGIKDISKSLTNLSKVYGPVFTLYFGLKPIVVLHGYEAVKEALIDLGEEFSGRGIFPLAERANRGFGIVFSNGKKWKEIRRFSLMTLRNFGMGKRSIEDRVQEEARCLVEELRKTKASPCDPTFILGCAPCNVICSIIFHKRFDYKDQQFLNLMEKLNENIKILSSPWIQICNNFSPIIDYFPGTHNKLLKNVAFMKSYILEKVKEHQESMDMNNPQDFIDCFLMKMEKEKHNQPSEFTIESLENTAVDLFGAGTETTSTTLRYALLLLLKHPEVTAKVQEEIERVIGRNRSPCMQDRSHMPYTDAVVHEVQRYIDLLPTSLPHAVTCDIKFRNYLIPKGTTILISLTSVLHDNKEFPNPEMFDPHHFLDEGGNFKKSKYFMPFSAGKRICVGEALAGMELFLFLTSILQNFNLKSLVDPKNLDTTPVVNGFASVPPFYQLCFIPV

[2] = test system: Streptococcus sp. 'group A'; assay: Streptococcus pyogenes SK(-)GAS viability under kanamycin – luminescence, BacTiterGlo, confirmation, counter-screen for streptokinase expression inhibitor project, dose response (AID 1900); type: functional, organism-based
Streptokinase A = biological target: T2, Streptokinase A (Streptococcus pyogenes serotype M1, UniProt P10520); assay: viability-normalized secreted streptokinase activity reduction – plasminogen activation absorbance, OD405, dose response (AID 1914); type: functional, Streptococcus pyogenes M1 GAS;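 note: secreted streptokinase activity via plasminogen activation per viability signal from cell pellet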
T2 sequence (P10520 whole entry): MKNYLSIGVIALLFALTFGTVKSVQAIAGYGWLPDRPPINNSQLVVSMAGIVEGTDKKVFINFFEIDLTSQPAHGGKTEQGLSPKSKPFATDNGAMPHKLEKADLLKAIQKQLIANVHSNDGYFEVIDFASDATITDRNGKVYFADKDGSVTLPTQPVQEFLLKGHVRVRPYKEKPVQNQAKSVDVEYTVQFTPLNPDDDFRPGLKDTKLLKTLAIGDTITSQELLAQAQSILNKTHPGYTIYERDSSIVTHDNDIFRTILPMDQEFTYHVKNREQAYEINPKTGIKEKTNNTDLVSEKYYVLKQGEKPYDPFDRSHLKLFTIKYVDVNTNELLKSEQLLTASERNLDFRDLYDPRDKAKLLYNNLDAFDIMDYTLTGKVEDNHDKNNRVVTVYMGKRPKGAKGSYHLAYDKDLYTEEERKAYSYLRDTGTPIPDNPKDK

Streptococcus = assay: GAS UMAA2166 growth inhibition – luminescence, BacTiterGlo, counter-screen for streptokinase expression inhibitor project, dose response (AID 1915); type: functional, organism-based;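 note: potency for reduction of bacterial viability or growth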
[3] = Trypanosoma cruzi growth suppression in host cells – NIH3T3 host cells, beta-gal luminescence, confirmation (AID 2044); type: functional, cell-based;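 note: intracellular parasites grown in NIH/3T3 mouse fibroblasts as host cells; luminescent beta-galactosidase reporter signal from transgenic T. cruzi replicating inside host cells; inhibitors lower the luminescence signal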
[4] = NIH3T3 cell viability loss – ATP luminescence, mouse fibroblasts, counter-screen, dose response (AID 2010); type: functional, cell-based;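 note: cells exposed to compound for about 90 hours before reading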

N[C@@H](Cn1cc(F)c(=O)[nH]c1=O)C(=O)O
AC50 (Cytochrome P450 1A2): 31.6 µM (inconclusive)

O=C(c1cnn2c1NC(c1ccc(Br)cc1)CC2C(F)(F)F)N1CCN2CCCC2C1 (stereo unspecified)
AC50 [1]: 1.81 µM (active)

Cn1cc(-c2nc3cncnc3n(Cc3ccccc3Cl)c2=O)c2ccccc21
AC50 (Cytochrome P450 1A2): 3.16 µM (inconclusive) | AC50 (Cytochrome P450 3A4): 7.94 µM (inconclusive)

C=CCn1c(SCc2ccccc2)nc2scc(-c3ccc(C)o3)c2c1=O
AC50 (Cytochrome P450 1A2): 1.58 µM (inconclusive)

CCCCCC1=C2CNC(CC(C)C)(C(=O)OC)C=C2C(C)C1=O (stereo unspecified)
AC50 (Cytochrome P450 2C19; read-out: AC50): 6.31 µM (inconclusive) | AC50 (Cytochrome P450 1A2): 25.1 µM (inconclusive) | AC50 (Cytochrome P450 3A4): 15.8 µM (inconclusive)

ON(CCc1ccncc1)Cc1ccccc1
AC50 (Cytochrome P450 2D6): 6.31 µM (inconclusive)

Cc1sc(NC(=O)c2ccco2)c(C(c2cccnc2)N2CCN(C)CC2)c1C (stereo unspecified)
AC50 (Cytochrome P450 2D6): 12.6 µM (inconclusive) | AC50 (Cytochrome P450 2C9): 2.82 µM (inconclusive)

COC(=O)[C@@]1(Cc2ccccc2)[C@H]2c3cc(C(=O)N4CCCC4)n(Cc4nc5ccccc5[nH]4)c3C[C@H]2CN1C(=O)c1ccccc1
AC50 (Cytochrome P450 1A2): 12.6 µM (inconclusive)

COCC(=O)N1CCC2(CC1)CN(Cc1ccccc1OC)C2
AC50 (Cytochrome P450 2C19; read-out: AC50): 39.8 µM (inconclusive)

CCOC(=O)N1CCC(NC(=O)C2CCN(S(=O)(=O)N3CCCC3)CC2)CC1
AC50 (Cytochrome P450 2C19): inconclusive

Cc1ccc2c(c1)/C(=C1\SC(N(C)c3ccc(O)cc3)=NC1=O)C(=O)N2
EC50 [2]: 6.59 µM (active) | EC50 (Streptokinase A): > 150 µM (not active) | EC50 (Streptococcus): 16.6 µM (active)

O=C(Nc1cccc(Cl)c1N1CCCC1)c1cc2ccccc2o1
EC50 [2]: 8.81 µM (active) | EC50 (Streptokinase A): 14.3 µM (active) | EC50 (Streptococcus): 20.5 µM (active)

CNC(=O)NC(=O)CSc1nnc(-c2ccco2)n1Cc1ccccc1
AC50 (Cytochrome P450 2C19; read-out: AC50): 35.5 µM (inconclusive) | AC50 (Cytochrome P450 3A4): 22.4 µM (inconclusive)

N=C1/C(=C\c2ccc(OC(=O)c3ccccc3Cl)cc2)C(=O)N=C2SC(N3CCOCC3)=NN12
EC50 [2]: 37.8 µM (active) | EC50 (Streptokinase A): > 150 µM (not active) | EC50 (Streptococcus): > 150 µM (not active)

CC(=O)NCCNc1ncnc2ccc(-c3ccccc3Cl)cc12
AC50 (Cytochrome P450 2C19; read-out: AC50): 20 µM (inconclusive)

O=C(/C=C\C=C/c1ccc2c(c1)OCO2)N1CCCCC1
AC50 (Cytochrome P450 2D6): 12.6 µM (inconclusive)

O=C(O)CCSc1ccc([N+](=O)[O-])cc1[N+](=O)[O-]
EC50 (Streptokinase A): > 150 µM (not active) | EC50 (Streptococcus): > 150 µM (not active)

CCOc1ccc(NC(=O)N2CCC(C(N)=O)(N3CCCCC3)CC2)cc1
AC50 (Cytochrome P450 2C19; read-out: AC50): 8.91 µM (inconclusive)

Cc1cc2nc(O)c([C@H](C)C(=O)c3ccc(Cl)cc3)nc2cc1C
AC50 (Cytochrome P450 2C19; read-out: AC50): 0.0794 µM (inconclusive) | AC50 (Cytochrome P450 1A2): 0.501 µM (inconclusive)

COc1cccc(-c2noc(-c3cccnc3)n2)c1
AC50 (Cytochrome P450 2D6): 20 µM (inconclusive)

COc1cccc(-c2coc3cc4oc(=O)c(CCC(=O)O)c(C)c4cc23)c1
EC50 [2]: 5.51 µM (active) | EC50 (Streptokinase A): > 150 µM (not active) | EC50 (Streptococcus): 48.5 µM (active)

Cc1cc(NC(=O)CSc2nc3ccsc3c(=O)n2Cc2ccccn2)[nH]n1
AC50 (Cytochrome P450 1A2): 6.31 µM (inconclusive)

O=C1[C@@H]2[C@@H](C(=O)N1c1ccc(OCc3ccccc3)cc1)[C@@H]1c3ccccc3[C@@H]2[n+]2ccccc21
AC50 (Cytochrome P450 2D6): 3.98 µM (inconclusive)

COc1ccc(Cc2nnc(NC(=O)Cn3cnc4c3c(=O)n(C)c(=O)n4C)s2)cc1OC
AC50 (Cytochrome P450 2C19; read-out: AC50): 28.2 µM (inconclusive) | AC50 (Cytochrome P450 2C9): 20 µM (inconclusive)

COc1ccccc1C(=O)NNC(=O)C(=O)Nc1cccc(Cl)c1C
EC50 [2]: 3.78 µM (active) | EC50 (Streptokinase A): > 150 µM (not active) | EC50 (Streptococcus): 16 µM (active)

COc1ccc(-c2sc3cc(OC)c(OC)cc3c2C#CC2(O)CCCCC2)cc1
AC50 [1]: 1.73 µM (active)

O=C(/C=C/c1ccc(Br)cc1)NC1CCCCCC1
AC50 (Cytochrome P450 1A2): 2 µM (inconclusive)

O=C(O)CCCN1C(=O)/C(=C/c2cn(-c3ccccc3)nc2-c2cccs2)SC1=S
EC50 [2]: 5.9 µM (active) | EC50 (Streptokinase A): > 150 µM (not active) | EC50 (Streptococcus): 7.28 µM (active)

O=C1[C@H]2[C@H]3[C@H](O)[C@H](O)C/C(=N/OCc4ccccc4)[C@H]3CC[C@@H]2C(=O)N1Cc1ccc2c(c1)OCO2
AC50 (Cytochrome P450 2C19; read-out: AC50): 2 µM (inconclusive)

O=C(c1csnn1)N1CCC2(CCCN(Cc3cc(C(F)(F)F)cc(C(F)(F)F)c3)C2)CC1
AC50 (Cytochrome P450 1A2): 12.6 µM (inconclusive) | AC50 (Cytochrome P450 2C9): 39.8 µM (inconclusive)

COC(=O)[C@@]1(Cc2ccc(OC)cc2)[C@H]2c3cc(C(=O)N4CCCC4)n(CCCNc4ncc(C(F)(F)F)cc4Cl)c3C[C@H]2CN1C(=O)c1ccccc1
AC50 (Cytochrome P450 1A2): 31.6 µM (inconclusive) | AC50 (Cytochrome P450 3A4): 1.26 µM (inconclusive)

CC(C)CN=C(S)NC1CC2CCCC(C1)N2Cc1ccco1 (stereo unspecified)
AC50 (Cytochrome P450 2C19; read-out: AC50): 39.8 µM (inconclusive)

COCOc1ccc(Br)cc1C(=O)[C@H]1O[C@H]1c1cccc(OC)c1
AC50 (Cytochrome P450 2D6): 3.16 µM (inconclusive)

S=c1[nH]cnc2scc(-c3ccc(Cl)cc3)c12
EC50 (Streptokinase A): > 150 µM (not active)

CC1CCN(c2ccccc2NC(=O)c2ccc(Br)o2)CC1
EC50 [2]: 5.4 µM (active) | EC50 (Streptokinase A): 43.6 µM (active) | EC50 (Streptococcus): 10.3 µM (active)

O=C(Nc1ccc(-c2csc(-c3ccccc3)n2)cc1)c1ccccc1Cl
EC50 [3]: 1.57 µM (active) | EC50 [4]: 9.89 µM (active) | AC50 (Cytochrome P450 1A2): 0.0708 µM (inconclusive)

CCN(CC)c1cc(C)c2cc(NC(=O)CNC(C)=O)ccc2n1
AC50 (Cytochrome P450 2C19): inconclusive | AC50 (Cytochrome P450 2C9): 0.891 µM (inconclusive)

O=[N+]([O-])c1ccccc1-c1ccc(C(=S)N2CCN(c3ccccc3)CC2)o1
AC50 [1]: > 195 µM (inactive)

COc1ccc(C2C3=C(CC(C)(C)CC3=O)Oc3ncn(CC(C)C)c(=N)c32)cc1 (stereo unspecified)
AC50 (Cytochrome P450 2C19; read-out: AC50): 39.8 µM (inconclusive) | AC50 (Cytochrome P450 2C9): 39.8 µM (inconclusive)

COc1cc(OC)cc(C(=O)NCCNc2nc3cc(C)cc(C)c3cc2C#N)c1
AC50 [1]: > 195 µM (inactive)

O=C(Nc1ncc(Cc2cccc([N+](=O)[O-])c2)s1)c1ccco1
AC50 [1]: 1.4 µM (active)

C[C@@H](CSc1ccc(Br)cc1)CN1CC[C@H](NC(=O)OCc2ccccc2)CCC1=O
AC50 [1]: 5.92 µM (active)

CCC(COC(=O)NC)NC(=O)Oc1ccccc1 (stereo unspecified)
AC50 (Cytochrome P450 1A2): 39.8 µM (inconclusive)

COc1ccc(-c2sc3cc4c(cc3c2-c2ccc(OCCN3CCOCC3)cc2)OCO4)cc1
AC50 [1]: 0.29 µM (active)

COc1cc(OC)cc(-c2sc3ccc(OC)cc3c2C#CCO)c1
AC50 [1]: 4.83 µM (active)

CC#CCCCC(=O)Nc1cc(OC)nc(OC)n1
AC50 (Cytochrome P450 2D6): 15.8 µM (inconclusive)

CCOC(=O)Nc1ccc(C)cc1NC(=O)OCC
AC50 (Cytochrome P450 2C19; read-out: AC50): 14.1 µM (inconclusive) | AC50 (Cytochrome P450 2C9): 25.1 µM (inconclusive)

Cc1cc(C(C)(C)C)c(OC(=O)[C@@H]2OC(c3ccccc3)=C[C@H]2c2ccccc2)c(C(C)(C)C)c1
AC50 [1]: 5.03 µM (active)

COc1ccc(CCNC(=O)COC(=O)c2cnc(C)cn2)cc1
AC50 (Cytochrome P450 1A2): 25.1 µM (inconclusive) | AC50 (Cytochrome P450 3A4): 22.4 µM (inconclusive) | AC50 (Cytochrome P450 2C9): 0.00562 µM (inconclusive)

CCCS(=O)(=O)N1CCCC(C(=O)N2CCOCC2)C1 (stereo unspecified)
AC50 (Cytochrome P450 1A2): 5.01 µM (inconclusive)

CCNS(=O)(=O)c1ccc(NS(C)(=O)=O)cc1
AC50 (Cytochrome P450 2C19): inconclusive | AC50 (Cytochrome P450 2C9): 7.94 µM (inconclusive)

O=C(Nc1ccc(Cl)cc1C(=O)c1ccccc1Cl)c1ccco1
AC50 (Cytochrome P450 1A2): 2.51 µM (inconclusive)

C/C(=N/NC(=O)c1ccc(-c2ccccc2)cc1)c1cc(O)cc(O)c1
AC50 [1]: 2.97 µM (active)

C/C(=N\NS(=O)(=O)c1ccc(C)cc1)c1ccc(C)o1
EC50 [2]: > 150 µM (not active) | EC50 (Streptokinase A): > 150 µM (not active) | EC50 (Streptococcus): > 150 µM (not active)

CO/N=C(/CNC(=O)c1cccc(Cl)c1)c1ccc(Cl)cc1
AC50 (Cytochrome P450 2D6): 25.1 µM (inconclusive)

CC(C)CN(C)c1nc(N)c(C(=O)N=C(N)N)nc1Cl [5-(N-METHYL-N-ISOBUTYL)AMILORIDE]
AC50 (Cytochrome P450 2C19; read-out: AC50): 31.6 µM (inconclusive)

CN1CCc2cc(Cl)c(O)cc2[C@@H](c2ccccc2)C1 [SCH-23390]
AC50 (Cytochrome P450 1A2): 39.8 µM (inconclusive)
